pIC50: −log10 of the molar value.
What follows are molecules tested against T1, PD-1/PD-L1 (Homo sapiens, UniProt Q9NZQ7) (assay: PD-1/PD-L1 Homogenous Time-Resolved Fluorescence (HTRF) binding assay). Settings: PD-L1-His 10 nM, PD-1-Ig 20 nM.
T1 construct: TVMV protease site linker (C); made in house; host or cells: HEK293T cells
Outline: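 Time-resolved FRET read-out using Eu-cryptate anti-Ig (1 nM final) and APC anti-His (20 nM final). Tagged extracellular domains were used in BSA/Tween-20-supplemented dPBS, with compound pre-incubated 15 min with PD-L1-His (10 nM) before PD-1-Ig (20 nM) was added for 15 min. Other human pairs: PD-L2-His 5 nM with PD-1-Ig 20 nM; PD-L1-Ig 10 nM with CD80-His 100 nM.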

T1 sequence (Q9NZQ7 18-239): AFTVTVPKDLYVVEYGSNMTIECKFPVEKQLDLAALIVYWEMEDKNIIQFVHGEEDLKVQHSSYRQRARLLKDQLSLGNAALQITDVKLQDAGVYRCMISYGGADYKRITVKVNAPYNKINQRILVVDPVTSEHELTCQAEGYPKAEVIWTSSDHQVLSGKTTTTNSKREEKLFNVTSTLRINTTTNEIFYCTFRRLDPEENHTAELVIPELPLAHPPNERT

Point of comparison: Cc1c(COc2cc(OCc3cncc(C#N)c3)c(CN(C)Cc3nn(C)cc3Cl)cc2Cl)cccc1-c1cccc(OCCCN2CC[C@@H](O)C2)c1C [Example 2027, (R)-5-((4-chloro-2-((((4-chloro-1-methyl-1H-pyrazol-3-yl)methyl)(methyl)amino)methyl)-5-((3′-(3-(3-hydroxypyrrolidin-1-yl)propoxy)-2,2′-dimethyl-[1,1′-biphenyl]-3-yl)methoxy)phenoxy)methyl)nicotinonitrile], pIC50 8.64. Against it:
- CC(=O)NC1CCN(CCCOc2cccc(-c3cccc(COc4cc(OCc5cncc(C#N)c5)c(CNCc5nnn[nH]5)cc4Cl)c3C)c2C)CC1 [Example 1046, N-(1-(3-((3′-((4-((((1H-Tetrazol-5-yl)methyl)amino)methyl)-2-chloro-5-((5-cyanopyridin-3-yl)methoxy)phenoxy)methyl)-2,2′-dimethyl-[1,1′-biphenyl]-3-yl)oxy)propyl)piperidin-4-yl)acetamide] — within 0.2 log units, 8.72
- Cc1c(COc2cc(OCc3cncc(C#N)c3)c(CN3CCCCC3c3ncc[nH]3)cc2Cl)cccc1-c1cccc(OCCCN2CC[C@@H](O)C2)c1C (stereo partly drawn) [Example 1009, 5-((2-((2-(1H-Imidazol-2-yl)piperidin-1-yl)methyl)-4-chloro-5-((3′-(3-((R)-3-hydroxy-pyrrolidin-1-yl)propoxy)-2,2′-dimethyl-[1,1′-biphenyl]-3-yl)methoxy)phenoxy)methyl)-nicotinonitrile] — 0.66 log units higher, 9.30
- Cc1c(COc2cc(OCc3cncc(C#N)c3)c(CN(C)Cc3csc(N)n3)cc2Cl)cccc1-c1cccc(OCC2CCCN(C)C2)c1Cl (centres unmarked) [Example 2617, 5-((2-((((2-aminothiazol-4-yl)methyl)(methyl)amino)methyl)-4-chloro-5-((2′-chloro-2-methyl-3′-((1-methylpiperidin-3-yl)methoxy)-[1,1′-biphenyl]-3-yl)methoxy)phenoxy)methyl)nicotinonitrile] — within 0.2 log units, 8.74
- Cc1c(COc2cc(OCc3cncc(C#N)c3)c(CN3CCCCC3c3cc[nH]n3)cc2Cl)cccc1-c1cccc(OCC2CCCN(C)C2)c1Cl (centres unmarked) [Example 1021, 5-((2-((2-(1H-Pyrazol-3-yl)piperidin-1-yl)methyl)-4-chloro-5-((2′-chloro-2-methyl-3′-((1-methyl-piperidin-3-yl)methoxy)-[1,1′-biphenyl]-3-yl)methoxy)phenoxy)methyl)-nicotinonitrile] — within 0.2 log units, 8.74
- COCc1noc(CNCc2cc(Cl)c(OCc3cccc(-c4cccc(OCC5CCCN(C)C5)c4Cl)c3C)cc2OCc2cncc(C#N)c2)n1 (centres unmarked) [Example 2595, 5-((4-chloro-5-((2′-chloro-2-methyl-3′-((1-methylpiperidin-3-yl)methoxy)-[1,1′-biphenyl]-3-yl)methoxy)-2-((((3-(methoxymethyl)-1,2,4-oxadiazol-5-yl)methyl)amino)methyl)phenoxy)methyl)nicotinonitrile] — within 0.2 log units, 8.70
- Cc1c(COc2cc(OCc3cncc(C#N)c3)c(CNCc3ccnc(C(N)=O)n3)cc2Cl)cccc1-c1cccc(OCCCN2CC[C@@H](O)C2)c1C [Example 2041, (R)-4-(((5-chloro-2-((5-cyanopyridin-3-yl)methoxy)-4-((3′-(3-(3-hydroxypyrrolidin-1-yl)propoxy)-2,2′-dimethyl-[1,1′-biphenyl]-3-yl)methoxy)benzyl)amino)methyl)pyrimidine-2-carboxamide] — within 0.2 log units, 8.72
- Cc1c(COc2cc(OCc3cncc(C#N)c3)c(CN3CCCCC3c3cn[nH]c3)cc2Cl)cccc1-c1cccc(OCCCNC[C@H](O)CO)c1Cl (stereo partly drawn) [Example 1032, 5-((2-((2-(1H-Pyrazol-4-yl)piperidin-1-yl)methyl)-4-chloro-5-((2′-chloro-3′-(3-(((S)-2,3-dihydroxypropyl)amino)propoxy)-2-methyl-[1,1′-biphenyl]-3-yl)methoxy)phenoxy)-methyl)nicotinonitrile] — 0.46 log units higher, 9.10
